{"source": "patent US20080305054A1", "about": "“Use of Glycosylated Flavanones for the Browning of Skin or Hair” (SYMRISE GMBH & CO. KG, priority 2004, published 2008)", "key": {"[1]": {"tested_on": "B16V mouse melanoma cells", "assay": "Pigmenting effect (stimulation of pigmentation)", "type": "cell-based", "experimental": "mouse melanoma cells are disseminated in a 96-well microtitre plate in a concentration of 5×10^3 cells/well. After cultivation for 24 h at 37° C. and 5% CO2 in RPMI medium, enriched with 10% foetal calf serum, various concentrations of the test substances and 10 nM α-MSH (α-melanocyte stimulating hormone) are added and incubated for a further 96 h. […] The stimulation of pigmentation in the presence of the test compounds was calculated using the following equation: Stimulation of pigmentation (%)=[(A test compound/A control)×100]-100 From the stimulation of pigmentation (%) in a series of dilutions of test compounds, the EC50 for each test compound was calculated. This is the concentration of a test compound at which pigmentation is stimulated by 50%."}, "[2]": {"assay": "Cytotoxicity determination (MTT)", "type": "cell-based, mouse", "details": "mouse, B16V mouse melanoma cells; Table 3, repeat of the Table 1 values; read-out: IC50 cytotox", "experimental": "(§1) B16V mouse melanoma cells are disseminated in a 96-well microtitre plate in a concentration of 2×10^4 cells/well (B16V). After cultivation for 24 h at 37° C. and 5% CO2 in RPMI medium (B16V cells), enriched with 10% foetal calf serum, the medium is drawn off. Various concentrations of the test substances, dissolved in fresh medium enriched with 5% foetal calf serum, are added and incubated for a further 48 h. In parallel the cells are incubated with SDS as standard in concentrations of 0.01 mM, 0.1 mM, 1 mM and 10 mM. After incubation the medium is drawn off and the cells are incubated for 2 h with MTT (3-[4,5-dimethylthiazol-2-yl]2,5-diphenyl tetrazolium bromide). After extraction of the dye (MTT) with acetic acid SDS in DMSO (10 min), the absorption (A) is measured at 570 nm.\n(§2) The mean and standard deviation of the controls, blanks and samples are calculated. The mean of the blank is subtracted from the means of the controls and samples. The viability of the cells is stated as a percentage relative to the controls (100%):\n(§3) Viability (%)=[(Atest compound/Acontrol)×100]\n(§4) The IC50 (mean inhibitory concentration) indicates the test substance concentration at which 50% of the cells are vital."}, "[3]": {"tested_on": "B16V mouse melanoma cells", "assay": "Cytotoxicity determination (MTT)", "type": "cell-based", "details": "MTT viability, 48 h incubation, concentration at which 50% of the cells are vital", "experimental": "as §1, §2, §3, §4"}, "tyrosinase": {"tested_on": "tyrosinase", "details": "of 27 flavonoids tested; cited from earlier work"}, "B16V melanoma cells [4]": {"tested_on": "B16V melanoma cells", "details": "cited from earlier work"}, "glucose absorption": {"tested_on": "glucose absorption", "details": "cited from earlier work"}, "B16V melanoma cells [5]": {"tested_on": "B16V melanoma cells", "details": "cited from earlier work", "remark": "listed apart in the source"}, "male rats": {"tested_on": "male rats", "details": "cited from earlier work"}, "melanoma cells [6]": {"tested_on": "melanoma cells", "details": "cited from earlier work"}, "melanoma cells [7]": {"tested_on": "melanoma cells", "details": "cited from earlier work", "remark": "listed apart in the source"}, "melanin synthesis": {"tested_on": "melanin synthesis", "details": "cited from earlier work"}, "[8]": {"details": "96 h with 10 nM α-MSH, concentration at which pigmentation is stimulated by 50%, non-cytotoxic concentration range"}, "[9]": {"details": "Table 3, repeat of the Table 2 values"}, "[10]": {"details": "Mus musculus, 96 h, 96 h with 10 nM α-MSH, concentration at which pigmentation is stimulated by 50%, non-cytotoxic concentration range"}, "[11]": {"details": "Mus musculus, read-out: EC50 pigm. effect, Table 3, repeat of the Table 2 values"}}, "note": "Like-named read-outs stand apart in the source and are kept apart here."}
{"molecule": "O=c1cc(-c2ccc(O)cc2)oc2cc(O)cc(O)c12", "note": "[Apigenin]", "values": [{"measurement": "EC50", "setting": "[1]; [8]", "value": "inactive"}, {"measurement": "EC50 pigm. effect", "setting": "[1]; [9]", "value": "inactive"}, {"measurement": "IC50 at 48 h", "setting": "[2]", "value": 33, "unit": "µM"}, {"measurement": "IC50", "setting": "[3]; Mus musculus, read-out: IC50", "value": 33, "unit": "µM"}]}
{"molecule": "COc1ccc([C@@H]2CC(=O)c3c(O)cc(O)cc3O2)cc1O", "note": "[Hesperetin]", "values": [{"measurement": "EC50", "setting": "[1]; [8]", "value": "inactive"}, {"measurement": "EC50 pigm. effect", "setting": "[1]; [9]", "value": "inactive"}, {"measurement": "IC50 at 48 h", "setting": "[2]", "value": 40, "unit": "µM"}, {"measurement": "IC50", "setting": "[3]; Mus musculus, read-out: IC50", "value": 40, "unit": "µM"}]}
{"molecule": "COc1ccc([C@@H]2CC(=O)c3c(O)cc(O[C@@H]4O[C@H](CO[C@@H]5O[C@@H](C)[C@H](O)[C@@H](O)[C@H]5O)[C@@H](O)[C@H](O)[C@H]4O)cc3O2)cc1O", "note": "[Hesperidin]", "values": [{"measurement": "EC50", "setting": "[1]; [10]", "value": "< 2", "unit": "µM"}, {"measurement": "EC50", "setting": "[1]; [11]", "value": 1.5, "unit": "µM"}, {"measurement": "IC50 at 48 h", "setting": "[2]", "value": 1500, "unit": "µM"}, {"measurement": "IC50", "setting": "[3]; Mus musculus, 48 h", "value": "> 1000", "unit": "µM"}]}
{"molecule": "O=c1c(O)c(-c2ccc(O)cc2)oc2cc(O)cc(O)c12", "note": "[Kaempferol]", "values": [{"measurement": "tyrosinase inhibition", "setting": "tyrosinase", "value": "tyrosinase inhibition"}, {"measurement": "EC50", "setting": "[1]; [8]", "value": "inactive"}, {"measurement": "EC50 pigm. effect", "setting": "[1]; [9]", "value": "inactive"}, {"measurement": "IC50 at 48 h", "setting": "[2]", "value": 43, "unit": "µM"}, {"measurement": "IC50", "setting": "[3]; Mus musculus, read-out: IC50", "value": 43, "unit": "µM"}]}
{"molecule": "O=c1cc(-c2ccc(O)c(O)c2)oc2cc(O)cc(O)c12", "note": "[Luteolin]", "values": [{"measurement": "tyrosinase inhibition", "setting": "tyrosinase", "value": "tyrosinase inhibition"}, {"measurement": "EC50", "setting": "[1]; [8]", "value": "inactive"}, {"measurement": "EC50 pigm. effect", "setting": "[1]; [9]", "value": "inactive"}, {"measurement": "IC50 at 48 h", "setting": "[2]", "value": 37, "unit": "µM"}, {"measurement": "IC50", "setting": "[3]; Mus musculus, read-out: IC50", "value": 37, "unit": "µM"}]}
{"molecule": "O=C1C[C@@H](c2ccc(O)cc2)Oc2cc(O)cc(O)c21", "note": "[Naringenin]", "values": [{"measurement": "EC50", "setting": "[1]; [8]", "value": "inactive"}, {"measurement": "EC50 pigm. effect", "setting": "[1]; [9]", "value": "inactive"}, {"measurement": "IC50 at 48 h", "setting": "[2]", "value": 30, "unit": "µM"}, {"measurement": "IC50", "setting": "[3]; Mus musculus, read-out: IC50", "value": 30, "unit": "µM"}]}
{"molecule": "C[C@@H]1O[C@@H](O[C@H]2[C@H](Oc3cc(O)c4c(c3)OC(c3ccc(O)cc3)CC4=O)O[C@H](CO)[C@@H](O)[C@@H]2O)[C@H](O)[C@H](O)[C@H]1O", "note": "(stereo partly drawn) [Naringin]", "values": [{"measurement": "EC50", "setting": "[1]; [11]", "value": 0.5, "unit": "µM"}, {"measurement": "IC50 at 48 h", "setting": "[2]", "value": "> 10000", "unit": "µM"}, {"measurement": "IC50", "setting": "[3]", "value": "> 10000", "unit": "µM"}]}
{"molecule": "COc1ccc(C2CC(=O)c3c(O)cc(OC4OC(CO)C(O)C(O)C4OC4OC(C)C(O)C(O)C4O)cc3O2)cc1O", "note": "(stereo not drawn) [Neohesperidin]", "values": [{"measurement": "EC50", "setting": "[1]; [10]", "value": "< 2", "unit": "µM"}, {"measurement": "EC50", "setting": "[1]; [11]", "value": 1, "unit": "µM"}, {"measurement": "IC50 at 48 h", "setting": "[2]", "value": "> 4000", "unit": "µM"}, {"measurement": "IC50", "setting": "[3]", "value": "> 4000", "unit": "µM"}]}
{"molecule": "O=C(CCc1ccc(O)cc1)c1c(O)cc(O)cc1O[C@@H]1O[C@H](CO)[C@@H](O)[C@H](O)[C@H]1O", "note": "[Phloridzin]", "values": [{"measurement": "melanin relative to the untreated control", "setting": "B16V melanoma cells [4]; 1 mM", "value": "+81%"}, {"measurement": "inhibition of glucose absorption", "setting": "glucose absorption", "value": "inhibitor of glucose absorption"}, {"measurement": "toxicity to reproduction", "setting": "glucose absorption", "value": "toxic to reproduction"}, {"measurement": "cytotoxicity", "setting": "B16V melanoma cells [5]", "value": "no cytotoxicity"}]}
{"molecule": "O=c1c(O)c(-c2ccc(O)c(O)c2)oc2cc(O)cc(O)c12", "note": "[Quercetin]", "values": [{"measurement": "tyrosinase inhibition", "setting": "tyrosinase", "value": "tyrosinase inhibition"}, {"measurement": "EC50", "setting": "[1]; Mus musculus, 96 h with 10 nM α-MSH, concentration at which pigmentation is stimulated by 50%, non-cytotoxic concentration range, read-out: EC50", "value": 15, "unit": "µM"}, {"measurement": "EC50", "setting": "[1]; Mus musculus, Table 3, repeat of the Table 2 values, read-out: EC50 pigm. effect", "value": 15, "unit": "µM"}, {"measurement": "melanin relative to the untreated control", "setting": "B16V melanoma cells [4]; maximum non-cytotoxic concentration of 0.003 mM", "value": "+38%"}, {"measurement": "hepatotoxic effect", "setting": "male rats", "value": "hepatotoxic effect"}, {"measurement": "IC50 at 48 h", "setting": "[2]", "value": 48, "unit": "µM"}, {"measurement": "IC50", "setting": "[3]; Mus musculus, read-out: IC50", "value": 48, "unit": "µM"}, {"measurement": "maximum non-cytotoxic concentration", "setting": "B16V melanoma cells [5]", "value": 0.003, "unit": "mM"}]}
{"molecule": "OC[C@H]1O[C@@H](Oc2cc3c(O)cc(O)cc3[o+]c2-c2ccc(O)c(O)c2)[C@H](O)[C@@H](O)[C@@H]1O", "note": "[cyanidin-3-β-D-glucoside]", "values": [{"measurement": "effect on melanin synthesis", "setting": "melanoma cells [6]", "value": "stimulates melanin synthesis"}]}
{"molecule": "O=c1c(-c2ccc(O)cc2)coc2cc(O)ccc12", "note": "[daidzein]", "values": [{"measurement": "effect on melanin production / melanogenesis", "setting": "melanoma cells [7]", "value": "no effect on melanogenesis"}]}
{"molecule": "O=C(O[C@@H]1Cc2c(O)cc(O)cc2O[C@@H]1c1cc(O)c(O)c(O)c1)c1cc(O)c(O)c(O)c1", "note": "[epigallocatechin gallate]", "values": [{"measurement": "effect on melanin synthesis", "setting": "melanin synthesis", "value": "inhibition of melanin synthesis"}]}
{"molecule": "O=c1c(-c2ccc(O)cc2)coc2cc(O)cc(O)c12", "note": "[genistein]", "values": [{"measurement": "effect on melanin production / melanogenesis", "setting": "melanoma cells [7]", "value": "increases melanin production"}]}
{"molecule": "O=c1c(O)c(-c2ccc(O)cc2O)oc2cc(O)cc(O)c12", "note": "[morin]", "values": [{"measurement": "tyrosinase inhibition", "setting": "tyrosinase", "value": "tyrosinase inhibition"}]}
{"molecule": "O=c1c(O)c(-c2cc(O)c(O)c(O)c2)oc2cc(O)cc(O)c12", "note": "[myricetin]", "values": [{"measurement": "tyrosinase inhibition", "setting": "tyrosinase", "value": "tyrosinase inhibition"}]}
{"molecule": "O=C(CCc1ccc(O)cc1)c1c(O)cc(O)cc1O", "note": "[phloretin]", "values": [{"measurement": "effect on melanogenesis", "setting": "B16V melanoma cells [4]; non-cytotoxic concentrations", "value": "ineffective"}]}
{"molecule": "O=c1c(O)cc([C@H]2Oc3cc(O)cc(O)c3C[C@H]2O)cc2c([C@H]3Oc4cc(O)cc(O)c4C[C@H]3O)cc(O)c(O)c12", "note": "[theaflavin]", "values": [{"measurement": "tyrosinase inhibition", "setting": "tyrosinase", "value": "tyrosinase inhibition"}]}
{"molecule": "theaflavinmonogallate", "values": [{"measurement": "tyrosinase inhibition", "setting": "tyrosinase", "value": "tyrosinase inhibition"}]}
